The test has as its target AgrC-I (Staphylococcus aureus, UniProt Q309Y8). Put plainly: reverse autokinase kinetics, Michaelis-Menten. The note with it: reverse reaction from pre-phosphorylated AgrC-I discs; without AIP. Format: biochemical.

For the compound `Nc1ncnc2c1ncn2[C@@H]1O[C@H](COP(=O)(O)OP(=O)(O)O)[C@@H](O)[C@H]1O` [ADP], the Km entry is given as “the Km for ADP was lower while the kmax was higher than the forward reaction”.

The values are drawn from PMC4004102 (Molecular cell, 2014).
